This note sets out measurements from paper PMC6692352, “DF2726A, a new IL-8 signalling inhibitor, is able to counteract chemotherapy-induced neuropathic pain” (Scientific Reports, 2019).

Series [1] relates to oxaliplatin-induced cold allodynia. As to the kind of experiment: Oxaliplatin-induced cold allodynia (acetone test). The series is classed as in vivo, male Wistar rats. The note with it: 30 mg/kg os for 24 days; from day 5 (P < 0.01) to final test day (P < 0.001). On the procedure:
Behavioural tests were performed on male Wistar rats (200–250 g, Harlan, Italy) housed in the animal care facility at the Department of Pharmacy of the University of Naples Federico II, Italy, as previously described. Animals were housed, in a group of five, in a room with controlled temperature (22 ± 1 °C), humidity (60 ± 10%) and light (12 h per day); food and water were available ad libitum. All animals were weighted on the day of each treatment. All behavioural tests were performed between 09:00 and 17:00 h, and the animals were used only once. Animal care and manipulations were conducted in conformity with International and National law and policies (EU Directive 2010/63/EU for animal experiments, ARRIVE guidelines, and the Basel declaration including the 3R concept). The procedures reported here were approved by the Institutional Committee on the Ethics of Animal Experiments (CVS) of the University of Naples Federico II and by Ministero della Salute under protocol no. 2014-00884607. […]
Cold sensitivity was measured as the number of foot withdrawal responses after application of acetone to the dorsal surface of the paw[8],[22]. […] The mean of paw withdrawal (expressed in numbers) was determined from an average of six separate measurements. Cold responses were measured before (day -1) and then 3, 5, 7, 10, 14 and 21 days after first administration of oxaliplatin or vehicle. […]

Another series has as its target CYP 3A4 (Homo sapiens, UniProt P08684). Nature of the series: CYP inhibition 3A4. The series is classed as in vitro ADME. From the text: Table 1 Physicochemical and in Vitro ADME Properties of DF2726A. | column: DF2726A
Series [2] in a line: Pharmacokinetics in the rat, intravenous and oral. Format: in vivo, Sprague Dawley rats. On the procedure: Pharmacokinetics studies in the rat
DF2726A was administered to male Sprague Dawley rats (Charles River Srl. Calco Italy, 6-8 weeks old, n = 4/groups) intravenously (5 mg/kg, Dulbecco’s phosphate buffered saline) and orally (5 mg/kg Dulbecco’s phosphate buffered saline).
On day of treatment, an exact amount of DF2726A was dissolved in the appropriate volume of vehicle to obtain a final concentration of 2.0 mg/mL (IV) and 1 mg/mL (OS). Both of the formulations were filtered at 0.45 μm filter before use in animals.
After the administration of DF2726A, a 0.15-0.20 mL of blood was collected via jugular vein catheters with zero-dead volume disposable syringes (1 mL iv Insulin syringes with attached 25G […]
5/8 inch needles; Chemil s.r.l., Padova, Italy) at 0.08, 0.5, 1, 3, 6, 12, 24, 36 and 48 h for i.v. dosing and at 0.25, 0.5, 1, 3, 6, 12, 24, 36 and 48 h for oral dosing. After each blood withdrawal, the catheters were washed with 0.15-0.2 mL of sterile physiological saline and filled with 0.03 mL of heparin saline solution (0.25 U.I/mL). The heparinized blood was immediately centrifuged (8000 RPM for 5 min at approximately 4°C) and the resultant plasma transferred into vials and stored at - 20°C until analysis. DF2726A concentrations were quantified by HLPC-MS/MS using a chromatographic method with a lower limit of quantitation of 1 ng·mL -1. Non-compartmental analysis (Gibaldi and Perrier, 1982) were used to calculate the pharmacokinetic parameters using a MKModel by Nick Holford software Version 4, (Biosoft, Ferguson, MO 63 135, USA). […]

Where [3] appears, read: single 5 mg/kg intravenous dose.

Chain of CYP 3A4 (P08684 whole entry): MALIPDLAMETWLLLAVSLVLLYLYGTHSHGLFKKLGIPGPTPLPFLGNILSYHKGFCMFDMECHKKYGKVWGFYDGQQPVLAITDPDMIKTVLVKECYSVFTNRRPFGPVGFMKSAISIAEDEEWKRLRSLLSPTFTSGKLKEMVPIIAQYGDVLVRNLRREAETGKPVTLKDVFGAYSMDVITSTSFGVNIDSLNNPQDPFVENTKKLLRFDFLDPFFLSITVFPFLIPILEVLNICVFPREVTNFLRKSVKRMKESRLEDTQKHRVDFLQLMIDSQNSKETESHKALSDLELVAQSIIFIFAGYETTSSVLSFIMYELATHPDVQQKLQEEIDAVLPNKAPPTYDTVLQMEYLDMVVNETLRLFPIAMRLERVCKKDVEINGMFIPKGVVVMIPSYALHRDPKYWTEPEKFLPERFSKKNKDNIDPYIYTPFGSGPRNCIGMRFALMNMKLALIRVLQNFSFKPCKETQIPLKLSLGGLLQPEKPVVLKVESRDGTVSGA

As a reminder, the IC50 is the point on the concentration scale where inhibition reaches its midpoint. Low readings indicate higher potency, high ones lower potency. On to `CC(C)(C(=O)O)c1ccc(Nc2nc(C(F)(F)F)cs2)cc1` [DF2726A], for which the “Effect on oxaliplatin-induced cold allodynia (acetone paw withdrawal responses)” value in series [1] is on record as “marked attenuation of cold allodynia”. The same compound displayed an IC50 against CYP 3A4 greater than 30 µM. In series [2] (5 mg/kg oral dose), the “AUC0-last Oral” value was 136.3 ± 22.6 µg·h/mL, the “Cmax Oral” value came out at 6860 ± 1600 ng/mL, the “t1/2 Oral” value is recorded as 16.2 ± 3.3 h and the “tmax Oral” value is reported as 6.0 h. The “F (oral bioavailability)” value in series [2] (5 mg/kg oral vs 5 mg/kg intravenous) is given as 96.8%. For the same compound, in series [2] (setting [3]), the “AUC0-last Intravenous” value was determined as 140.8 ± 24.9 µg·h/mL, the “CLtotal Intravenous” value is 0.62 ± 0.11 mL/min/kg, the “Vd Intravenous” value amounted to 0.52 ± 0.09 L/kg and the “t1/2 Intravenous” value is 15.2 ± 3.8 h.
